This note sets out measurements from US20240000737A1, “SUBSTANCES FOR TREATMENT OF HYPERURICAEMIA” (SCANDIBIO THERAPEUTICS AB, priority 2020, published 2024).

One test relates to plasma creatinine. In words: Rat high-fat diet study: plasma creatinine. Type of test: in vivo, Sprague Dawley male rats. The settings on record: HFD rats, once daily oral gavage in weeks four and five, fold change relative to group 3 (HFD reference), * = P < 0.05. As for the experimental part: (§1) The Ethics Committee of Atatürk University approved all experimental protocols about animal care, handling and experimentation. All experiments were performed in accordance with relevant guidelines and regulations. 44 Sprague Dawley male rats (10-12 weeks old) weighing 375-415 g were obtained from Atatürk University Experimental Research Center (ATADEM) and housed at 22±2° C. with 50±5% humidity on a 12 hr light/dark cycle.
(§2) Chow diet (CD) and a high-fat diet (HFD) were used to fed the animals in this study. The CD was composed of wheat, wheat bran, rice polishing and fish meal, with approximately 25% proteins, 60% carbohydrates and 15% fat in terms of the caloric content. On the other hand, HFD was composed of normal food, beef tallow, sugar and condensed milk and contained approximately 14% proteins, 37% carbohydrates and 49% fat in terms of the caloric content.
(§3) Following 1-week habituation, the rats were separated into two groups: a control group (Group 1, n=4), which was fed with a regular CD; and the HFD group (n=40), which was fed with HFD. After three weeks, four rats in the HFD group (Group 2) were randomly sacrificed and the remaining 36 rats in the HFD group were randomly divided into nine sub-groups (Groups 3-11, four rats in each subgroup).
(§4) Groups 3-11 received the following treatments during weeks four and five: • Group 3 received only the HFD (reference) • Group 4 received the HFD and Serine (1000 mg/kg once daily by oral gavage) • Group 5 received the HFD and NAC (300 mg/kg once daily by oral gavage) • Group 6 received the HFD and L-Carnitine tartrate (LCAT) (100 mg/kg once daily by oral gavage) • Group 7 received the HFD and Nicotinamide riboside chloride (NRCl) (120 mg/kg once daily by oral gavage) • Group 8 received the HFD and Nicotinamide (NA) (120 mg/kg once daily by oral gavage) • Group 9 received the HFD, Serine (1000 mg/kg once daily by oral gavage), NAC (300 mg/kg once daily by oral gavage) and LCAT (100 mg/kg once daily by oral gavage) • Group 10 received the HFD, Serine (1000 mg/kg once daily by oral gavage), NAC (300 mg/kg once daily by oral gavage), LCAT (100 mg/kg/day) and NRCl (120 mg/kg once daily by oral gavage) • Group 11 received the HFD, Serine (1000 mg/kg once daily by oral gavage), NAC (300 mg/kg once daily by oral gavage), LCAT (100 mg/kg once daily by oral gavage) and NA (120 mg/kg once daily by oral gavage)
(§5) The body weight and food intake of the rats was recorded each week. After week five, all animals of groups 3-11 were anesthetized with isoflurane and sacrificed. Blood samples were collected from the abdominal aorta and centrifuged at 8000 rpm for 15 min at 4° C. The plasma was separated and stored at −80° C. until further analysis.
(§6) Plasma samples were thawed and analyzed for creatinine and uric acid.

The test system of the next test is plasma uric acid. Briefly: Rat high-fat diet study: plasma uric acid. Type of test: in vivo, Sprague Dawley male rats. The settings on record: HFD rats, once daily oral gavage in weeks four and five, fold change relative to group 3 (HFD reference), * = P < 0.05. As for the experimental part: as §1, §2, §3, §4, §5, §6

In the case of `C[N+](C)(C)C[C@H](O)CC(=O)[O-].O=C(O)C(O)C(O)C(=O)O` [LCAT, L-Carnitine tartrate], the “Creatinine Fold change” value with plasma creatinine was 0.89. Also, in the test with plasma uric acid, the “Uric Acid Fold change” value was 0.62*.

Regarding `NC(=O)c1cccnc1` [NA, Nicotinamide], in the test with plasma creatinine, the “Creatinine Fold change” value is recorded as 0.96. The “Uric Acid Fold change” value in the test on plasma uric acid was 0.53*.

As to `CC(=O)N[C@@H](CS)C(=O)O` [NAC, N-acetyl cysteine], the “Creatinine Fold change” value in the test with plasma creatinine amounted to 0.85. Further, the “Uric Acid Fold change” value in the test with plasma uric acid is on record as 0.76.

As for `NC(=O)c1ccc[n+]([C@@H]2O[C@H](CO)[C@@H](O)[C@H]2O)c1.[Cl-]` [NRCl, Nicotinamide riboside chloride], the “Creatinine Fold change” value in the test on plasma creatinine is 0.83*. In addition, the “Uric Acid Fold change” value in the test on plasma uric acid is recorded as 0.64*.

On to `N[C@@H](CO)C(=O)O` [Serine], for which the “Creatinine Fold change” value in the test on plasma creatinine was 0.84*. Moreover, the “Uric Acid Fold change” value with plasma uric acid was 0.72*.
